Measurements: patent US20210130291A1, “METHODS FOR TREATING DIABETES USING VDAC1 INHIBITORS” (THE NATIONAL INSTITUTE FOR BIOTECHNOLOGY IN THE NEGEV LTD., priority 2016, published 2021)

Experiments:
[1] = tested on: islets from T2D donors; test: ATP content and GSIS in islets from T2D donors, acute addition of VDAC1 inhibitors; format: cell-based, human; conditions: for GSIS: T2D islets, acute addition 1 h (FIG. 6f); for islet ATP content: islets from 5 T2D donors and one IGT donor, 1 h, at 1 and 16.7 mM glucose (FIG. 6e)
Description: (§1) Human pancreatic islets were obtained through collaboration between Human Tissue Laboratory within Lund University Diabetes Centre (LUDC) and the Nordic Network for Clinical Islet Transplantation (Prof. Olle Korsgren, Uppsala University, Sweden). Donors were grouped according to HbA1c i.e. less than 6% (ND), between 6% and 6.5% (IGT), higher than 6.5% or history of diabetes (T2D). The human islets (70-90% purity) had been cultured in CMRL 1066 (ICN Biomedicals, Costa Mesa, Calif.) supplemented with 10 mM HEPES, 2 mM L-glutamine, […] gentamicin, […] fungizone (Gibco, BRL, Gaithersburg, Md.), 20 μg/ml ciprofloxacin (Bayer Healthcare, Leverkusen, Germany) and 10 mM nicotinamide at 37° C. (5% CO2) for 1 to 5 days prior to the arrival in the laboratory. The islets were then hand-picked under stereomicroscope prior to use. All procedures using human islets were approved by the ethical committees at Uppsala and Lund Universities, Sweden.
(§2) Human pancreatic islets were collected under a stereomicroscope at room temperature and cultured at 5.5 or 20 mM glucose in the absence or presence of test agents for 72 h. Thereafter the islets were washed and preincubated for 30 min at 37° C. in Krebs Ringer bicarbonate buffer, pH 7.4, supplemented with N-2 hydroxyethylpiperazine-N′-2-ethanesulfonic acid (10 mM), 0.1% bovine serum albumin, and 1 mM glucose. Each incubation vial contained 12 islets in 1.0 ml KRB buffer solution and treated with 95% O2 and 5% CO2 to obtain constant pH and oxygenation. After preincubation, the buffer was changed to a medium containing either 1 mM or 16.7 mM glucose. The islets were then incubated for 1 h at 37° C. in a metabolic shaker (30 cycles per min). Immediately after incubation an aliquot of the medium was removed for analysis of insulin and the islets were incubated in acid-ethanol for insulin content determination by radioimmunoassay.
(§3) ATP release from isolated mouse or human islets or from INS-1 cells after transfection with mitochondrial targeted VDAC1 (mtVDAC1) or plasma membrane targeted VDAC1 (plVDAC1) plasmids was determined using a luminometric assay kit according to manufacturer's recommendation (Biovision). After incubation of islets (50/vial) or INS-1 cells for 60 min, an aliquot of the media was removed for subsequent measurements of released ATP. Then the islets or INS-1 cells were washed 3 times and the lysates were used for measurements of ATP and protein contents followed the protocol provided by the vendor.

[2] = tested on: db/db mice; test: Oral (gavage) administration of VBIT-4 to db/db mice, blood glucose; format: in vivo, mouse
Description: Next, the effect of orally administered VBIT-4 on blood glucose in db/db mice was examined. VBIT-4 at the indicated doses or vehicle was administered by gavage to db/db mice from the age of 6-11 weeks. Blood was sampled and […] once a week. Blood glucose was measured by a handheld device ContourXt (Bayer) using blood glucose strips.

[3] = tested on: db/db mice; conditions: Cao K, et al. 2014; cited from earlier work
[4] = tested on: islets of diabetic db/db mice; test: ATP content, ATP release and GSIS in islets of diabetic db/db mice; format: cell-based, mouse
Description: 5 weeks old db/db mice and control (C57/bl) (Janvier Laboratory, France), weighing 18-25 g, were used throughout the experiments. They were given a standard pellet diet (B&K) and tap water ad libitum. The experimental procedures were approved by the Ethics Committee for Animal Research at Lund University. Isolation of pancreatic islets was performed by retrograde injection of a collagenase solution via the bile-pancreatic duct and islets were then collected under a stereomicroscope at room temperature.
as §2, §3

[5] = tested on: VDAC1 mRNA in human islets; test: VDAC1 mRNA in non-diabetic human islets cultured under glucotoxic condition; format: cell-based; conditions: 72 h at 20 mM glucose, metformin 20 μM (FIG. 1d)
Description: Total RNA from handpicked mouse islets, human donor islets (Diabetic and non-diabetic) or [MUT] cells were extracted using RNAeasy (Qiagen, Hilden, Germany). […] Concentration and purity of total RNA was measured with a NanoDrop ND-1000 spectrophotometer (A260/A280>1.9 and A260/A230>1.4) (NanoDrop Technologies, Wilmington, Del.) and RNA Quality Indicator (RQI) higher than 8.0 (Experion Automated Electrophoresis, Bio-Rad, USA) was considered to be high-quality total RNA preparations. […] The qPCR was carried out as follows: 50° C. for 2 minutes, 95° C. for 10 minutes, 40 cycles of 95° C. for 15 seconds, and 60° C. for 1 minute. […] VDAC1 and VDAC2 mRNA and protein level were investigated by both qPCR and Western blotting relative to the expression of GAPDH and β-actin respectively.

[6] = tested on: human ND islets; test: GSIS in non-diabetic human islets cultured at 5 or 20 mM glucose; format: cell-based
Description: as §1
Human pancreatic islets were collected under a stereomicroscope at room temperature and cultured at 5.5 or 20 mM glucose in the absence or presence of test agents for 72 h. Thereafter the islets were washed and preincubated for 30 min at 37° C. in Krebs Ringer bicarbonate buffer, pH 7.4, supplemented with N-2 hydroxyethylpiperazine-N′-2-ethanesulfonic acid (10 mM), 0.1% bovine serum albumin, and 1 mM glucose. […]

[7] = tested on: human islet cells; test: Cellular reductive capacity (MTS) in human islets; format: cell-based; conditions: VDAC1 antibody 10 nM
Description: The reductive capacity of cells was measured either on INS-1 cells or dispersed human islet cells when the INS-1 cells or islets were subjected to 5 or 20 mM glucose for 72 h in the absence or presence of test agents or after down-regulation of VDAC1 and VDAC2 as described elsewhere (35, 40). Measurement of reductive capacity was performed using the MTS reagent kit according to the manufacturer's instructions (Promega). Apoptosis was measured with the Cell Death Kit (Roche Diagnostics), which quantifies the appearance of cytosolic nucleosomes.

[8] = biological target: T1, plVDAC1 (Mus musculus, UniProt Q60932); test: Whole-cell patch-clamp membrane conductance in INS-1 cells; format: cell-based; conditions: superfusion with metformin 20 μM (FIG. 4f)
T1 construct: expressed in transfected cells; host or cells: INS-1 832/13 cells (rat insulinoma), transient transfection; plasmid a gift from Dr. R. Buettner
T1 sequence (Q60932 whole entry, the tested form may be a part): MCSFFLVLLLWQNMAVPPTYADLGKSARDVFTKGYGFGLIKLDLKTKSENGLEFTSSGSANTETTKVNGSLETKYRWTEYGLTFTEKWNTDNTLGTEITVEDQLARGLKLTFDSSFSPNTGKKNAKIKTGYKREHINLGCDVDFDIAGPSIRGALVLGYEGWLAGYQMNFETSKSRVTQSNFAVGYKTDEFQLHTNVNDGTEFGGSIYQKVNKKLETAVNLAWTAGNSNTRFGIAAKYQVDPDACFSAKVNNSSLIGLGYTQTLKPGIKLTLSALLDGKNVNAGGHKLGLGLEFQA
Description: Whole-cell currents in INS-1 832/13 cells were evoked and recorded by EPC10 amplifier and Pulse software (HEKA, Lambrecht/Pfalz, Germany) as previously described (Buda P. et al. 2013. PLoS One. 8(5):e64462) with the temperature maintained at 32° C. The cells were continuously perfused with extracellular solution containing 118 mM NaCl, 20 mM tetraethylammonium chloride, 5.6 mM KCl, 2.6 mM CaCl2), 1.2 mM MgCl2, 5 mM HEPES and 5 mM glucose (pH 7.4 with NaOH) in the presence of 100 μM tolbutamide (T0891, Sigma-Aldrich). The intracellular solution consisted of 125 mM Cs-glutamate, 10 mM CsCl, 10 mM NaCl, 1 mM MgCl2, 5 mM HEPES, 3 mM Mg-ATP, 0.1 mM cAMP and 0.05 mM EGTA (pH 7.2 with CsOH). […] Conductance was measured by applying 200-ms voltage ramps from −90 mV to −50 mV. […] Data presented are from […] after the addition when steady-state was reached.
Conductance measurements were performed after at least 5 minutes exposure, and the cell dish was replaced no later than after 1 hour of perfusion. No wash-out experiments were performed in this experiment.

[9] = tested on: TXNIP; conditions: insulin-secreting cells and endothelial cells (Shaked 2011; Li 2015); cited from earlier work

SMILES | GSIS [1] | islet ATP content [1] | blood glucose ([2]; daily gavage for 5 weeks, age 6-11 weeks (FIG. 8)) | reduction of blood glucose concentration ([2]; gavage, 10 mg/Kg body weight, 5 weeks) | severity of hyperglycemia at onset of the disease [3] | insulin secretion in low glucose ([4]; islets from hyperglycemic db/db mice (FIG. 6c)) | cellular ATP levels ([4]; islets from hyperglycemic db/db mice, acute addition 1 h, VDAC1 antibody 10 nM, metformin 20 μM (FIG. 6a)) | ATP release ([4]; islets from hyperglycemic db/db mice, acute addition 1 h, VDAC1 antibody 10 nM, metformin 20 μM (FIG. 6b)) | insulin secretion at 16.7 mM glucose ([4]; islets from hyperglycemic db/db mice, compared to control (FIG. 6c)) | VDAC1 mRNA [5] | GSIS after culture at 5 mM glucose ([6]; 72 h culture with agent (FIG. 6d)) | GSIS after culture at 20 mM glucose ([6]; 72 h culture with agent, then 1 h at 1G or 16.7G (FIG. 6d)) | cellular reductive capacity (metabolism) in T2D islets ([7]; metformin 20 μM (FIG. 6h)) | cellular reductive capacity after culture at 5 mM glucose ([7]; human islets, metformin 20 μM (FIG. 6g)) | elevated conductance in plVDAC1-transformed cells [8] | membrane currents in control INS-1 cells [8] | TXNIP activation by high glucose concentrations [9]
O=C(CC(CO)N1CCN(c2ccc(OC(F)(F)F)cc2)CC1)Nc1ccc(Cl)cc1 (racemic) [VBIT-4, N-(4-chlorophenyl)-4-hydroxy-3-(4-(4-(trifluoromethoxy)phenyl)-piperazin-1-yl)butanamide] | increased in parallel with the improved ATP generation | increased islet ATP content | reduced blood glucose | the reduction was significant along the entire trail period | – | – | – | – | – | – | – | – | – | – | – | – | –
CN(C)C(=N)N=C(N)N [metformin] | increased in parallel with the improved ATP generation | increased islet ATP content | – | – | attenuates the severity of hyperglycemia | no effect | increased its cellular levels | reduced ATP release | increased insulin secretion | prevented the increase in VDAC1 mRNA | unaffected | prevented the attenuation of GSIS | markedly improved metabolism | no effect | abrogating the elevated conductance | did not affect membrane currents | inhibits TXNIP activation
